Results on 1 compound are retold here after PMC5700161, “Structure of human immunoproteasome with a reversible and noncompetitive inhibitor that selectively inhibits activated lymphocytes” (Nature Communications, 2017).

A value given as a limit tells only on which side of the number the result lay.

In one experiment the test system is proliferating T cells. As to the kind of experiment: Apoptosis and viability of proliferating vs non-proliferating T cells. Format: cell-based, human. The settings on record: 4 days anti-CD3/anti-CD28, then 24 h; PKS21221 1 µM, BTZ 10 nM. The text has this:
As we observed selective cytotoxicity of PKS21221 in activated B cells and ASCs compared to non-activated B cells, we asked whether this is the case in proliferating T cells. We activated human T cells to proliferate with anti-CD3 and anti-CD28 in the presence or absence of PKS21221 or bortezomib. […] To examine whether these inhibitors are cytotoxic preferentially to proliferating cells, we triggered T-cell proliferation with anti-CD3/anti-CD28 for 4 days (in the absence of inhibitors), treated the cells with PKS21221 for the next 24 h and determined cell survival with Annexin V and 7-AAD (Fig. 6c, d).
Fig. 6 Effect of PKS21221 and bortezomib (BTZ) on T-cell proliferation. T cells were isolated from human PBMC and stimulated with anti-CD3 (1 µg per ml) and anti-CD28 (1 µg per ml) for 4 days. […] Apoptosis c and viability d were assessed in proliferating and non-proliferating population of T cells. […]
T cells were isolated from human PBMCs using Human T-cell Isolation kit (StemCell Technologies, Cat#17951). […] Cells were counted and loaded with 5 μM CellTrace Violet (Thermo Fisher) in phosphate buffered saline (PBS) for 10 min at 37 °C, followed by wash in 10% fetal calf serum (FCS)-supplemented RPMI 1640 media. […] The viability and apoptosis were assessed using Annexin V Apoptosis Detection Kit (BD Biosciences). […]

A further experiment has as its target β1c (Homo sapiens, UniProt P28072). The experiment is described as follows: IC50 against β1c of human constitutive proteasome (Z-LLE-AMC). The following applies: read-out: IC50 1c - LLE (β1c); substrate Z-LLE-AMC.
In another experiment the target is β1i (Homo sapiens, UniProt P28065). As to the kind of experiment: IC50 against β1i of human immunoproteasome (Ac-PAL-AMC). The following applies: read-out: IC50 1i - PAL (β1i); substrate Ac-PAL-AMC.
A further experiment relates to luciferase. The experiment is described as follows: Luciferase counter-test. It counts as biochemical. The following applies: at 100 µM, tested over 0.002–100 µM.
Experiment [1] concerns the target T1, β5i in Karpas 1106P cells (Homo sapiens, UniProt P20618+P28062).
T1 construct: host or cells: Karpas 1106P
As to the kind of experiment: Intracellular β5i activity in Karpas 1106P cells, (Ac-ANW)2-R110. It counts as cell-based. The protocol:
To determine if this class of inhibitors is cell penetrable, we treated the B-cell lymphoma line Karpas 1106P[28] (expressing a high proportion of i-20S over c-20S) with PKS21221 before incubation with either (Ac-ANW)2-R110 (a specific substrate of β5i) or suc-LLVY-luciferin (a substrate of β5) (Fig. 4a). […] No β5i activity was detected in HepG2 cells using (Ac-ANW)2-R110 as a substrate.
Cell viability was determined by CellTiter-glo.
Intracellular proteasomal activity and inhibition assay were performed as reported. Karpas 1106P (80,000 cells per well) were plated and incubated with compound at indicated concentrations for 1 h at 37 °C. The activity of the overall β5 activity including β5i and β5c in each was measured in situ after compound removal with Proteasome-Glo assay kit according to manufacturer’s instructions. Luminescence was recorded on a SpectraMax M5 plate reader. Relative percentage of RLU was used to calculate the IC50s.

The next experiment concerns HepG2 cells. As to the kind of experiment: Cytotoxicity, CellTiter-glo, HepG2. The following applies: read-out: EC50 HepG2, 72 h. The protocol:
Fig. 4 Intracellular proteasome inhibition by PKS21221 and its cytotoxicity against transformed cell lines. a Karpas 1106P lymphoma cells (white and black symbols) or HepG2 cells (blue symbols) were treated with PKS21221 for 2 h at the concentrations indicated prior to incubation with substrate (Ac-ANW)2R110 for β5i (Karpas cells) or suc-LLVY-luciferin for β5 (Karpas cells and HepG2 cells). […] Cell viability was determined by CellTiter-glo. Data are means ± SEM of three to four independent experiments
We incubated MM.1S, RPMI 8226, Karpas and HepG2 cells with PKS21221 at different concentrations, and determined cell viability after 72 h (Fig. 4b).
We used Karpas 1106P B lymphoma cell line (Cat. No. 06072607, Aldrich)[15],[16],[52], HepG2 (HB-8065, ATCC), MM.1S (Cat. No. CRL-2974, ATCC). Cells were cultured at 37 °C in a humidified air/5% CO2 atmosphere in medium supplemented with 10% fetal bovine serum, except for the medium for Karpas 1106P cells which contained 20% fetal bovine serum, and 100 units per ml penicillin, 100 μg per ml streptomycin in RPMI 1640 medium. Karpas 1106P was used at 80,000 cells per well, MM.1S at 100,000 cells per well, and HepG2 at 12,000 cells per well. […] Viable cells were counted using Cell-titer Glo assay kit. EC50s were calculated using PRISM (Graphpad).

For a further experiment, the target named is human β5c (Homo sapiens, UniProt P20618+P28074). As to the kind of experiment: IC50 determination against human β5c of c-20S.
The target of a further experiment is β2c (Homo sapiens, UniProt Q99436). As to the kind of experiment: IC50 against β2c of human constitutive proteasome (Z-VLR-AMC). The settings on record: read-out: IC50 2c - VLR (β2c); substrate Z-VLR-AMC.

Method for human β5c: (§1) IC50s of all compounds against β5i and β5c (Table 2) and against β1i, β2i, β1c, and β2c (Supplementary Table 1) were determined following reported methods[8].
Method for β1c: as §1
Method for β1i: as §1
Method for β2c: as §1

On to `Cc1ccc(S(=O)(=O)N[C@@H](CC(=O)NC(C)(C)C)C(=O)NCCNC(=O)c2cc(-c3ccccc3F)ccc2F)cc1` [PKS21221], for which the “apoptosis and cell death, proliferating vs non-proliferating T cells” value in the experiment with proliferating T cells was “induced apoptosis and cell death to a greater extent in proliferating T cells than in non-proliferating T cells”. For the same compound, the IC50 on β1c is above 50000 nM; on β1i, above 50000 nM; in experiment [1] it was 172 ± 33 nM; on human β5c (read-out: IC50 against β5c), 110 nM; at β2c it was above 50000 nM. The “inhibition of luciferase activity” value with luciferase is recorded as “does not inhibit”. The EC50 in the experiment on HepG2 cells was 2320 ± 630 nM. Also, on human β5c, the “Hill coefficient constant, inhibition of β5c” value is given as ~ 1.
